Measurements taken from a melting point compilation (Tetko et al.; mined from patent text by program, amines drawn as free bases though some values may be those of a salt).

Question: With `CS(=O)c1c(C(=N)NO)nn(-c2c(Cl)cc(C(F)(F)F)cc2Cl)c1N` (stereo not given) as the compound, how does the melting point read?
Answer: 225 to 226 °C

Question: Which melting point does the source give for `COC(=O)C=C1CN=C(c2ccccc2)c2cc(Cl)ccc2N1` here?
Answer: 167 to 170 °C

Question: Which melting point does the source give for `CCCc1c(OCCCSCCO)ccc(C(C)=O)c1O` here?
Answer: 72 to 74 °C

Question: With `Cn1nc(-c2ccc([N+](=O)[O-])o2)c2c(Cl)ncnc21` as the compound, how does the melting point read?
Answer: 195 °C

Question: With `Clc1ccc(N2CCN(Cc3c[nH]c4ncccc34)CC2)cc1Cl` as the compound, how does the melting point read?
Answer: 219 to 220 °C

Question: Which melting point does the source give for `CCCCCCCCc1ccc(CCC(CCOC(C)=O)(CCOC(C)=O)NC(C)=O)cc1` here?
Answer: 57 to 59 °C

Question: For `CC(=O)c1cc(S(=O)(=O)c2ccccc2)ccc1OC[C@@H]1CO1`, which melting point is on record?
Answer: 112 to 114 °C

Question: Which melting point does the source give for `Cc1ccc(NC(=O)c2ccccc2)c(C(=O)O)c1` here?
Answer: 205 to 208 °C

Question: For `CCC(CC)COc1cnc(N)nc1N`, which melting point is on record?
Answer: 173 to 174 °C

Question: With `CCOC(=O)CCC(=O)Oc1cc([N+](=O)[O-])cc([N+](=O)[O-])c1OC(=O)CCC(=O)OCC` as the compound, how does the melting point read?
Answer: 60 to 63 °C

Question: Which melting point does the source give for `N#Cc1ccc(COc2ccc(CC(NC(=O)c3cc4ccc(-c5ccc(Cl)cc5)cc4o3)C(=O)O)cc2)cc1` (stereo not given) here?
Answer: 204 °C

Question: With `COC(=O)NC1CCCCC1` as the compound, how does the melting point read?
Answer: 73 to 74 °C

Question: For `Oc1c(-c2ccccc2)nn(Cc2ccccc2)c1-c1ccccc1`, which melting point is on record?
Answer: 194 to 195 °C

Question: With `Cc1nn(C(=O)NC(C)C)c(=O)n1C` as the compound, how does the melting point read?
Answer: 81 °C

Question: Which melting point does the source give for `CC(C)(C)[Si](C)(C)O[C@H](/C=C/[C@@H]1[C@H]2CC(=O)O[C@H]2C[C@H]1O[Si](C)(C)C(C)(C)C)COc1cccc(C(F)(F)F)c1` here?
Answer: 91 to 93 °C

Question: For `Cc1nc2c(cc1CO)CCCC2=Cc1ccccc1`, which melting point is on record?
Answer: 102 to 103 °C

Question: For `COc1ccc(OCC(O)CN2CCN(c3ccccc3C(=O)O)CC2)c(C(C)(C)C)c1` (stereo not given), which melting point is on record?
Answer: 171 to 172 °C

Question: With `CC(=O)N(C)c1ccc(-c2cc3ccc(Br)cn3c2)cc1C` as the compound, how does the melting point read?
Answer: 197 to 198 °C

Question: For `CCc1cc(C#N)cc2c(NCc3ccc(OC)c(Cl)c3)c(C(=O)Oc3c(F)c(F)c(F)c(F)c3F)cnc12`, which melting point is on record?
Answer: 169 to 170 °C

Question: Which melting point does the source give for `CN1CCC2(CC1)SC(c1ccc(Cl)cc1)c1ccccc12` (stereo not given) here?
Answer: 121 to 123 °C

Question: Which melting point does the source give for `COC(=O)c1oc(Cl)nc1C` here?
Answer: 69 to 71 °C

Question: For `COC(=O)c1cc(C(C)(C)C)c(OC(=O)c2cc(C(C)(C)C)c(O)c(C(C)(C)C)c2)c(C(C)(C)C)c1`, which melting point is on record?
Answer: 206 to 209 °C

Question: Which melting point does the source give for `CC1(C)NC(=O)c2ccc(Oc3nnnn3-c3ccccc3)cc21` here?
Answer: 202 to 204 °C

Question: For `O=C(Cn1c(-c2cccc(Cl)c2)nc2cccnc21)N1CCCCC1`, which melting point is on record?
Answer: 140 to 150 °C

Question: Which melting point does the source give for `O=C(CBr)c1cc(OCc2ccccc2)no1` here?
Answer: 80 to 81 °C

Question: With `CC1(C)CCC(C)(C)c2cc(-c3cc(Br)cc(C(=O)O)c3)ccc21` as the compound, how does the melting point read?
Answer: 165 °C

Question: Which melting point does the source give for `N#Cc1cccc(N2Cc3ccccc3CN(C3CCNCC3)C2=O)c1` here?
Answer: 116 °C

Question: For `COc1cccc(-c2nc(-c3ccccc3)c3ncc(-c4cccnc4)cc3n2)c1`, which melting point is on record?
Answer: 134 to 135 °C

Question: Which melting point does the source give for `ON=Cc1ccc(-c2ccc(O)cc2)c2occc12` here?
Answer: 216 to 217 °C

Question: Which melting point does the source give for `COc1ccc(N(N)c2nc(OCc3cccc(OC)c3)ncc2F)cc1` here?
Answer: 96 to 100 °C

Question: Which melting point does the source give for `COC(=O)c1ccc(C)c(-n2c(C)cc(OCc3ccc(F)cc3CNC(=O)Nc3cc(C(C)(C)C)nn3-c3ccc(O)c(Cl)c3)c(Cl)c2=O)c1` here?
Answer: 197 to 200 °C

Question: With `CN(C)c1ccc2c(c1)CNC2=O` as the compound, how does the melting point read?
Answer: 122 to 124 °C

Question: With `CC12CCC3C(CCC4C(=[N+]=[N-])C(=O)CCC43C)C1CCC2O` (stereo not given) as the compound, how does the melting point read?
Answer: 171 °C

Question: For `COc1cc(Nc2nccc(-c3ccc(N4CC(C)NC(C)C4)nc3)n2)cc(OC)c1OC` (stereo not given), which melting point is on record?
Answer: 110 to 111 °C

Question: With `CN1CCC(OC(c2ccccc2)c2nc3cccc(O)c3[nH]2)CC1` (stereo not given) as the compound, how does the melting point read?
Answer: 170 °C

Question: With `CC(C)(C)OC(=O)c1cccc(NC(N)=O)c1` as the compound, how does the melting point read?
Answer: 230 to 232 °C

Question: For `CN1N=C2c3cc(F)ccc3SCC2CC1=O` (stereo not given), which melting point is on record?
Answer: 125 to 128 °C

Question: With `N#Cc1cc(F)c(N)c(Br)c1F` as the compound, how does the melting point read?
Answer: 106 to 108 °C

Question: With `Cc1cc(C#N)ccc1-c1cccc(C=O)c1` as the compound, how does the melting point read?
Answer: 86 to 86.5 °C

Question: Which melting point does the source give for `CNS(=O)(=O)Oc1ccc2c(c1)C(C)(C)C(N1CCOCC1)O2` (stereo not given) here?
Answer: 129 to 131 °C

Question: Which melting point does the source give for `CC(=O)Nc1ccc(C)cc1C(=O)c1ccc(F)cc1` here?
Answer: 140 to 145 °C

Question: For `O=[N+]([O-])c1ccc(C2(Cn3cncn3)OCCO2)cc1`, which melting point is on record?
Answer: 160 °C

Question: With `CCOC(=O)C(=O)Nc1cnccn1` as the compound, how does the melting point read?
Answer: 134 to 137 °C

Question: Which melting point does the source give for `CC(C)(O)CCOc1c(-c2ccc(S(C)(=O)=O)cc2)cnn(-c2ccc(F)c(F)c2)c1=O` here?
Answer: 131 to 133 °C

Question: Which melting point does the source give for `CC(C)(C)OC(=O)N1C(=O)[C@H]2C=C[C@@H]1C2` here?
Answer: 70.5 to 71.5 °C

Question: For `Cc1cc(Nc2nccc(-c3sc(-c4cccnc4)nc3C)n2)ccc1N1CCCCC1`, which melting point is on record?
Answer: 200 to 201 °C

Question: Which melting point does the source give for `COc1cc(-c2ccnc(Nc3cccc(OC(F)(F)C(F)F)c3)n2)cc(OC)c1OC` here?
Answer: 132 °C

Question: For `Cc1cncc2ncc(-c3ccccc3)cc12`, which melting point is on record?
Answer: 135 to 138 °C

Question: With `Cc1cc(C)cc(Oc2c(CCCc3ccccc3)c(C)[nH]c(=O)c2I)c1` as the compound, how does the melting point read?
Answer: 220 °C

Question: Which melting point does the source give for `Cc1c(NC(=O)c2ccc(OC[C@@H]3CCCO3)cc2)ccc2cc(CN3CCC(C)(O)CC3)[nH]c12` here?
Answer: 169 °C

Question: With `CC(C#N)Oc1cccc(CN2C(=O)c3cccc(NC(=O)c4ccc(Cl)s4)c3C2=O)c1` (stereo not given) as the compound, how does the melting point read?
Answer: 88 °C

Question: For `CC1(C)CCC(C)(C)c2cc(C(=O)c3ccc(C(O)=NO)cc3)c(OCc3ccc(Br)cc3)cc21`, which melting point is on record?
Answer: 221 to 224 °C

Question: With `O=C1Nc2cccnc2N(C(=O)NCCN2CCCCC2CN2CCCCCC2)c2ccccc21` (stereo not given) as the compound, how does the melting point read?
Answer: 156 to 158 °C

Question: With `CC(C)c1nc(CO)n(Cc2cccnc2)c1Sc1cc(Cl)cc(Cl)c1` as the compound, how does the melting point read?
Answer: 136 to 139 °C

Question: Which melting point does the source give for `CC(=O)NC[C@H]1CN(c2ccc(N3CCC(F)(CN)CC3)c(F)c2)C(=O)O1` here?
Answer: 152 to 155 °C

Question: With `CN1Cc2c(C#C[Si](C)(C)C)ncn2-c2cccc(Cl)c2C1=O` as the compound, how does the melting point read?
Answer: 186 to 187 °C

Question: For `COc1ccc([C@H]2CCCN2[S@@](=O)C(C)(C)C)cc1`, which melting point is on record?
Answer: 61 to 63 °C

Question: For `CC(C)(C)OC(=O)C(Nc1ccccc1)c1ccccc1Cl` (racemic), which melting point is on record?
Answer: 74 °C

Question: Which melting point does the source give for `COc1ccccc1CN1Cc2c(-c3ccccc3)c3cc(C)c(C)cc3c(=O)n2CC1=O` here?
Answer: 211 to 214 °C

Question: For `CNc1nc(-c2cccc(NC(=O)c3ccc(Cl)cc3)c2)c2cc(OC)c(OC)cc2n1`, which melting point is on record?
Answer: 193 to 195 °C

Question: With `CCOCc1nc2c(N)nc3c(c2n1NCCCNC(=O)N1CCOCC1)CCCC3` as the compound, how does the melting point read?
Answer: 152 to 154 °C

Question: Which melting point does the source give for `CCOC(=O)CN(c1ccc(N)cc1)S(=O)(=O)c1cccc2ccccc12` here?
Answer: 98 to 103 °C

Question: For `CCC(=O)Nc1ccc2c(Nc3cccc(Br)c3)ncnc2c1`, which melting point is on record?
Answer: 282 to 283 °C

Question: With `O=C(Nc1cccc(C(F)(F)F)c1)C12CC3CC(CC(C3)C1)C2` as the compound, how does the melting point read?
Answer: 171 to 174 °C

Question: Which melting point does the source give for `Cn1ncc(C(=O)N2CCCC2)c1C(=O)Nc1ccn2nc(-c3ccccc3)nc2c1` here?
Answer: 210 to 215 °C

Question: For `CC(=NC1CCCCC1)NC12CC3CC(CC(C3)C1)C2`, which melting point is on record?
Answer: 185 to 187 °C

Question: With `CS(=O)(=O)c1cnc(Cl)c(I)c1` as the compound, how does the melting point read?
Answer: 178 to 180 °C

Question: For `COc1ccc(-c2ccc3c(c2)C=C(C(=O)Nc2ccc(CN(C)C4CCOCC4)cc2)CCS3(=O)=O)c(OC)c1`, which melting point is on record?
Answer: 175 to 178 °C

Question: With `CC(=O)NNC(=S)N1N=C(c2ccc([N+](=O)[O-])cc2)c2cc3c(cc2CC1C)OCO3` (stereo not given) as the compound, how does the melting point read?
Answer: 118 °C

Question: With `CCC(O)(c1ccc(OCc2cccc(C)n2)cc1)c1cc(C)ccc1C` (stereo not given) as the compound, how does the melting point read?
Answer: 107 to 108 °C
